# pEC50, pIC50: −log10 of the molar value.
# Key:
# HCT116/OxR cells = experiment: MTT-based cell viability assay, 72 h; parameters: species or system human
# Protocol: (§1) Cell models were seeded (2–2.5 × 10^3 cells per well) in 96-well plates. After 24 h of recovery, the compounds were applied at the concentrations indicated in triplicate. Cell viability was determined after 72 h of continuous drug incubation using an MTT-based cell viability assay (EZ4U, Biomedica, Vienna, Austria) according to the manufacturer's recommendations. Absorbance was measured at 450 nm (vs. 620 nm as reference) using a multimode microplate reader (Tecan Spark, Zurich, Switzerland). Half-maximal inhibitory concentrations (IC50 values) were derived via interpolation from dose–response curves, modeled with the four-parameter logistic (4PL) nonlinear regression model in GraphPad Prism (La Jolla, CA, USA) from at least three independent experiments.
# [1] = tested on: THP1-Dual, HCT116, HCT116/OxR and CT-26 cells; experiment: MTT-based cell viability assay, 72 h, statements over all investigated cell lines; parameters: species or system human and murine
# Protocol: as §1
# [2] = tested on: IRF pathway (STING-dependent); experiment: IRF-inducible luciferase reporter in THP1-Dual reporter cell model; assay type: cell-based, human; conditions: for IRF %EMAX of MSA-2: maximal response relative to MSA-2, highest tested dose 100 μM; for pEC50: 24 h exposure, normalized to cell viability, oxaliplatin in combinations 5 μM
# Text: (§2) The THP1-Dual™ reporter cell model for simultaneously monitoring the activity of the IRF and NF-κB pathway contains an IRF-inducible luciferase reporter under the control of an ISG54 minimal promoter in conjunction with five interferon (IFN)-stimulated response elements, and an induced SEAP driven by an IFN-β minimal promoter fused to five copies of the NF-κB consensus transcriptional response element and three copies of the c-Rel binding site. The luciferase and SEAP reporter are measurable in the cell culture supernatant using QUANTI-Luc™ 4 Lucia/Gaussia (InvivoGen) and QUANTI-Blue™ (InvivoGen) solution, respectively. Cells were seeded at 1 × 10^5 cells per well in 96-well plates in RPMI-1640 medium, supplemented with 10% FCS, L-glutamine and Pen-Strep. After 2 h of recovery, the compounds were applied at the concentrations indicated in triplicate. The cell culture supernatant (SN) was collected after 24 h of drug incubation and secreted luciferase and SEAP reporter levels were measured according to the manufacturer's recommendations. In brief, for the detection of luciferase, 20 μL of SN were transferred into 96-well white opaque plates, and 30 μL of QUANTI-Luc™ reagent were added per well using an injector module in a multimode microplate reader (Tecan Spark, Zurich, Switzerland). Luminescence was recorded at a reading time of 0.1 second. For the detection of SEAP, 10 μL of SN were transferred to 96-well plates and 90 μL of QUANTI-Blue™ were added per well. Absorbance was measured at 620 nm. Half-maximal effective concentrations (EC50 values) were derived via interpolation from dose–response curves, modeled with the four-parameter logistic (4PL) nonlinear regression model in GraphPad Prism. For comparison, the maximal response rate of the prodrug was depicted in the percent of the maximal response rate achieved by SR-717 or MSA-2 (%EMAX) at the respective concentrations tested. Activatability, tested in co-incubation experiments with AA (50 μM), was expressed as the area under the curve (AUC) ratio of +AA vs. −AA-treated cells. The STING-dependency of the reporter induction was tested by co-administration of the STING inhibitor H-151 (10 μM), added to the cell culture medium 2 h before applying the investigated compounds. In addition to monitoring secreted reporter levels, the cell viability of the reporter cells was determined after 24 h of drug treatment by an MTT-based cell viability assay.
# [3] = tested on: NF-κB pathway (STING-dependent); experiment: NF-κB-inducible SEAP reporter in THP1-Dual reporter cell model; assay type: cell-based, human; conditions: for NF-κB %EMAX of MSA-2: maximal response relative to MSA-2; for pEC50: 24 h exposure, normalized to cell viability, oxaliplatin in combinations 5 μM
# Text: as §2
# [4] = Hematological analysis 24 h after the second dose; conditions: 24 h after second dose; for anemia: two i.v. doses equimolar to 9 mg kg^−1 oxaliplatin
# Protocol: Mice were kept in groups of four per cage with sterilized paper-based environmental enrichment and food and water ad libitum, under pathogen-free conditions and a controlled environment with a 12 h light–dark cycle. Syngeneic models of colorectal carcinoma were generated via subcutaneous injection of CT-26 cells (0.5 × 10^6 cells in 50 μL of serum-free RPMI-1640 medium) into the right flank of 8–12 weeks old BALB/c mice. […] All animals were euthanized 24 h after the second dose. […] To determine the anticancer efficacy of the investigated compounds, treatment started 4 d after tumor implantation, when all tumors were measurable (>25 mm^3) using a twice-weekly treatment scheme for two weeks. Tumor size was determined daily via manual caliper measurement. The tumor volume was calculated as tumor volume = (length × diameter × diameter)/2. The overall condition, shape, and activity of the animals were assessed daily. Peripheral blood was collected from the submandibular vein in K3E K3EDTA tubes (Greiner Bio-One; Kremsmünster, AUT) on ice and was analyzed for hematological parameters (red blood cells (RBCs), hemoglobin (HGB), hematocrit (HCT), red cell distribution width (RDW), mean corpuscular volume (MCV), white blood cells (WBCs), lymphocytes (LYM), monocytes (MO), granulocytes (GRA), and platelets (PLT) using a Vet ABC hematology analyzer (scil Animal Care GmbH, Viernheim, Germany). EDTA-blood was centrifuged (900g, 10 min) twice and the supernatant (EDTA-plasma) was stored at −20 °C for subsequent cytokine/chemokine analysis using a Luminex detection platform. All animal experiments were performed with humane endpoints based on Federation of European Laboratory Animal Science Associations guidelines and according to the regulations of the Ethics Committee for the Care and Use of Laboratory Animals at the Medical University Vienna (proposal number BMBWF 2023–0.122.324). Animals were euthanized upon reaching a tumor volume of >1500 mm^3, a loss in body weight (>20%), tumor ulceration or other indications of deteriorated health. Animals were euthanized via cervical dislocation.
Compound,resistance factor (IC50 ratio HCT116/OxR vs parental HCT116) (HCT116/OxR cells),"IC50 ratio prodrug vs free oxaliplatin, maximum over cell models [1]",IRF EC50 ratio fold MSA-2 ([2]; 24 h),IRF %EMAX of MSA-2 ([2]; 24 h),pEC50 [2],NF-κB EC50 ratio fold MSA-2 ([3]; 24 h),NF-κB %EMAX of MSA-2 ([3]; 24 h),pEC50 [3],anemia [4],impact of reducing conditions on IRF-induced reporter signal (AUC ratio +AA/−AA) ([2]; AA 50 μM),pIC50 (HCT116/OxR cells; without AA),activation of IRF signaling pathway ([2]; 24 h),activation of NF-κB signaling pathway ([3]; 24 h),"red blood cell counts (RBCs), hematocrit (HCT), red cell distribution width (RDW) [4]"
"COCCOCCOCCOCCNC(=O)[O][Pt-2]12([O]C(=O)CCC(=O)c3cc4cc(OC)c(OC)cc4s3)([NH2+][C@@H]3CCCC[C@H]3[NH2+]1)[O]C(=O)C(=O)[O]2 [Ox-MSA-PEG-Ca, (OC-6-34)-[(1R,2R)-1,2-cyclohexanediamino]-oxalato-[4-(5,6-dimethoxybenzo[b]thiophen-2-yl)-4-oxobutylcarboxylato]-[3,6,9,12-tetraoxatridecan-1-amino]platinum(IV)]",2.7 fold,≤ 40 fold,6.3 fold,68%,4.24,3.1 fold,24%,4.26,not,–,–,–,–,–
"COCCOCCOCCOCCC(=O)[O][Pt-2]12([O]C(=O)CCC(=O)c3cc4cc(OC)c(OC)cc4s3)([NH2+][C@@H]3CCCC[C@H]3[NH2+]1)[O]C(=O)C(=O)[O]2 [Ox-MSA-PEG-Es, (OC-6-44)-[(1R,2R)-1,2-cyclohexanediamino]-oxalato-[4-(5,6-dimethoxybenzo[b]thiophen-2-yl)-4-oxobutylcarboxylato]-[2,5,8,11-tetraoxatetradecanoato]platinum(IV)]",> 3.1 fold,≤ 40 fold,8.6 fold,24%,4.10,> 5.7 fold,15%,< 4.00,–,significantly enhanced,–,–,–,–
"O=C1[O][Pt]2([NH][C@@H]3CCCC[C@H]3[NH]2)[O]C1=O [oxaliplatin, reference compound]",–,–,–,–,–,–,–,–,anemia,–,4.56,did not induce observable activation,did not induce observable activation,clearly lowered
